Results published in patent US20250368666A1, “INDAZOLE COMPOUNDS” (TYRA BIOSCIENCES, INC., priority 2022, published 2025).

Legend:
[1] = system: HuH7 cell line (FGF19 amplification); experiment: Cancer cell line cell viability assay (Cell Titer-Glo), 120 hr; assay type: cell-based; details: Homo sapiens, Huh-7
Method in brief: (§1)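 Cells seeded at 5,000-20,000/well, incubated overnight, then treated with a 9-dose, 4-fold dilution series from 3 μM in triplicate at 37° C, 5% CO2. Viability read by Cell Titer-Glo 2.0 luminescence as percent of DMSO control; IC50 from 4-parameter variable-slope sigmoidal fit.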

FGFR2 = molecular target: T1, FGFR2 (Homo sapiens, UniProt P21802); experiment: Kinase binding assay (kinase-tagged T7 phage, affinity beads, qPCR), Kd; details: read-out: FGFR2 (Kd nM)
T1 construct: made in house; host or cells: E. coli (BL21-derived), T7 phage
Method in brief: (§2)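 Readout was qPCR of kinase eluted from ligand-coated affinity beads after competition with test compound. Kinases were expressed as T7 phage fusions in E. coli. Binding constants were derived by non-linear least-squares Hill fitting, Hill slope −1.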

FGFR1 = molecular target: T2, FGFR1 (Homo sapiens, UniProt P11362); experiment: as above; details: read-out: FGFR1 (Kd nM)
T2 construct: made in house; host or cells: E. coli (BL21-derived), T7 phage
Method in brief: as §2

FGFR3 = molecular target: T3, FGFR3 (Homo sapiens, UniProt P22607); experiment: as above; details: read-out: FGFR3 (Kd nM)
T3 construct: made in house; host or cells: E. coli (BL21-derived), T7 phage
Method in brief: as §2

FGFR3 (V555M) = molecular target: T4, FGFR3 (V555M) (Homo sapiens, UniProt P22607, V555M); experiment: as above; details: V555M mutant; read-out: FGFR3 (V555M) (Kd nM)
T4 construct: made in house; host or cells: E. coli (BL21-derived), T7 phage
Method in brief: as §2

FGFR4 = molecular target: T5, FGFR4 (Homo sapiens, UniProt P22455); experiment: as above; details: read-out: FGFR4 (Kd nM)
T5 construct: made in house; host or cells: E. coli (BL21-derived), T7 phage
Method in brief: as §2

[2] = system: RT112/84 cell line (FGFR3-fusion); experiment: Cancer cell line cell viability assay (Cell Titer-Glo), 72 hr; assay type: cell-based; details: Homo sapiens, RT112/84, RT112/84 cell line (FGFR3-fusion)
Method in brief: as §1

[3] = system: KG-1 cell line (FGFR 1-fusion); experiment: as above; assay type: cell-based; details: Homo sapiens, KG-1, KG-1 cell line (FGFR1-fusion)
Method in brief: as §1

[4] = system: KATO-III cell line (FGFR2 amplification); experiment: as above; assay type: cell-based; details: Homo sapiens, KATO III
Method in brief: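 Luminescent ATP read-out (Cell Titer-Glo 2.0) after compound exposure, normalised to DMSO-only wells. Dosing: 9 concentrations, 4-fold steps, top 3 μM, triplicates. IC50 derived by log(inhibitor) vs. response 4-parameter fit.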

T5 sequence (P22455 22-802): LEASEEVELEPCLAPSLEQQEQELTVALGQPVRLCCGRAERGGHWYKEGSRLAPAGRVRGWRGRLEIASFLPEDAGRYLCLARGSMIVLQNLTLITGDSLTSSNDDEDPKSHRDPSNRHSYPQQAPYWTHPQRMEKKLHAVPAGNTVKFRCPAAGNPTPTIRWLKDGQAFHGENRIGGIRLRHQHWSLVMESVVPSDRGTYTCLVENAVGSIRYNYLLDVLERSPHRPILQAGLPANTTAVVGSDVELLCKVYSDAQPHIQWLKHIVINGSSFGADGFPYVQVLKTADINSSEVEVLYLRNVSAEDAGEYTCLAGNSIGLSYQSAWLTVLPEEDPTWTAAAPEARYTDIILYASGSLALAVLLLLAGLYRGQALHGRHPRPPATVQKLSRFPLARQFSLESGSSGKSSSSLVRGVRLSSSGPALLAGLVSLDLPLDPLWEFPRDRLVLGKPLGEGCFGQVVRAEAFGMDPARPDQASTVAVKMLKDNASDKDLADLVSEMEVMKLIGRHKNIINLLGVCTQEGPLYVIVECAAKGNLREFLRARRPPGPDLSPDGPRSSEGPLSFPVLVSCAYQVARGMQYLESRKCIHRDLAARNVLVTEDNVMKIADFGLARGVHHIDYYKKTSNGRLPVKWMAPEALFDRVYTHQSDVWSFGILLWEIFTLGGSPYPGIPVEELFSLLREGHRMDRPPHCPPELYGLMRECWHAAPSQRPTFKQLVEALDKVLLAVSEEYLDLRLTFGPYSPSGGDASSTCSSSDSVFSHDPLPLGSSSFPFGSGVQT
T2 sequence (P11362 22-822): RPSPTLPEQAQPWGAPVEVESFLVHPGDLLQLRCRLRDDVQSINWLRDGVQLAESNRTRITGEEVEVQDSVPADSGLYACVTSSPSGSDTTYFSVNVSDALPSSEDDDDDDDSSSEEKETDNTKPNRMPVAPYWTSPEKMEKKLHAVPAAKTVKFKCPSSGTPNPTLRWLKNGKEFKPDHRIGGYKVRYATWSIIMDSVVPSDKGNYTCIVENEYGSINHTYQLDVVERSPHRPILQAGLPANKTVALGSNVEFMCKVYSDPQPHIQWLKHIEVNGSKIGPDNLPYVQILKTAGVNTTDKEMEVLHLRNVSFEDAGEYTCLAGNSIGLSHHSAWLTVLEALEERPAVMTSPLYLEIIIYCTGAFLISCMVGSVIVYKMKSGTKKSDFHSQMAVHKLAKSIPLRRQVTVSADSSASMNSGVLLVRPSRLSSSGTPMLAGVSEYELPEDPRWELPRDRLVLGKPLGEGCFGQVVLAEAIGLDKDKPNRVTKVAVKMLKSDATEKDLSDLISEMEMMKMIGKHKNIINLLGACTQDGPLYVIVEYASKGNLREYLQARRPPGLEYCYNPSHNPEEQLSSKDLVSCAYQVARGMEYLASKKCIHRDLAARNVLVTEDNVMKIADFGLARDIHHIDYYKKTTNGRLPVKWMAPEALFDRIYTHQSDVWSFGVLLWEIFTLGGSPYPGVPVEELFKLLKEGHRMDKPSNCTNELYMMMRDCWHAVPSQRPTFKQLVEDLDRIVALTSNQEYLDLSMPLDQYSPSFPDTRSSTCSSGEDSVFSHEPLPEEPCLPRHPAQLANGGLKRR
T4 sequence (P22607 23-806 V555M): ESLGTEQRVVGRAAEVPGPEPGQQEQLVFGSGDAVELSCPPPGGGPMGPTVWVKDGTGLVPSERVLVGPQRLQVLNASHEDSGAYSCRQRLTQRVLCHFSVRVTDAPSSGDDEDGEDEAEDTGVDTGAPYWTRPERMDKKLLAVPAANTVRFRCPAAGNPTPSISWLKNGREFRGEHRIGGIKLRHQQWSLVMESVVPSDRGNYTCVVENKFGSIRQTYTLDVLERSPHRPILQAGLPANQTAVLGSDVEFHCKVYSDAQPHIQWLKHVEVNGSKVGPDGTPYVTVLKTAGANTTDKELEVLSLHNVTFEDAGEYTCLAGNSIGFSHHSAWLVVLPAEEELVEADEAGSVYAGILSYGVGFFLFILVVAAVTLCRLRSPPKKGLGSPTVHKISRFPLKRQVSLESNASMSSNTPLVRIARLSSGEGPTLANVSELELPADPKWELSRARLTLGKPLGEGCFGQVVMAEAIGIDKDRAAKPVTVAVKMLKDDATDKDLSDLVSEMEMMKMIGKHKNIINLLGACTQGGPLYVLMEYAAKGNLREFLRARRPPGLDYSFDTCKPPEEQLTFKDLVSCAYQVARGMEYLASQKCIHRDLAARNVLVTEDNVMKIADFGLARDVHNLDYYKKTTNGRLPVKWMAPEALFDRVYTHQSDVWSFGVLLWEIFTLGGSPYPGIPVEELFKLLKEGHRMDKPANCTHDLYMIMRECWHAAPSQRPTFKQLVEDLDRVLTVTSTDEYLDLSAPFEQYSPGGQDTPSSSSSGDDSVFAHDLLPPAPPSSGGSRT
T1 sequence (P21802 22-821): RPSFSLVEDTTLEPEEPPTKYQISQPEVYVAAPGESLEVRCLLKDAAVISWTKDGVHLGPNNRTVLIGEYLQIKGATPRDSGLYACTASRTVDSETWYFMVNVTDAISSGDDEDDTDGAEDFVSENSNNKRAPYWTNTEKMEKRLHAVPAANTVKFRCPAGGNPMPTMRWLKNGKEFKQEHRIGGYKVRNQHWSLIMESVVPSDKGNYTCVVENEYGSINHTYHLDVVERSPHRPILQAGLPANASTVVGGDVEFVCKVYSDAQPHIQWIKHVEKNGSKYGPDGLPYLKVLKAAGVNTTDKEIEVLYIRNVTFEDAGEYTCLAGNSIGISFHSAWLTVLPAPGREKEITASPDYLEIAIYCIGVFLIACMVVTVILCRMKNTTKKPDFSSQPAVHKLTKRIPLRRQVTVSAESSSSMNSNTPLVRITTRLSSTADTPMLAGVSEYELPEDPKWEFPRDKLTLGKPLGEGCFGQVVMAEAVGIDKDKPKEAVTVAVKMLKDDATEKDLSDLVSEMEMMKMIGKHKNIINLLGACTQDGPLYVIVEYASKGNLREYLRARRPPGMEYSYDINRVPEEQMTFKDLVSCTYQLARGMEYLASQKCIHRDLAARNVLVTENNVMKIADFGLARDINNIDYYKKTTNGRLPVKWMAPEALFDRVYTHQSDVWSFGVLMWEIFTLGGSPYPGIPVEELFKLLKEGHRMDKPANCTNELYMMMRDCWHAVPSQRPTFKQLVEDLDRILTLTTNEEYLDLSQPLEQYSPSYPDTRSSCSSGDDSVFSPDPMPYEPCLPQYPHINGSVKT
T3 sequence (P22607 23-806): as the sequence (P22607 23-806 V555M) above, with M533V counted along it

SMILES	IC50 [1] [nM]	Kd (FGFR2) [nM]	Kd (FGFR1) [nM]	Kd (FGFR3) [nM]	Kd (FGFR3 (V555M)) [nM]	Kd (FGFR4) [nM]	IC50 [2] [nM]	IC50 [3] [nM]	IC50 [4] [nM]
COc1cc2[nH]nc(-c3cnc(N4CC(C)(NC(C)C)C4)nc3)c2cc1O[C@H](C)c1c(Cl)cncc1Cl [Example 82, (R)-1-(5-(5-(1-(3,5-dichloropyridin-4-yl)ethoxy)-6-methoxy-1H-indazol-3-yl)pyrimidin-2-yl)-N-isopropyl-3-methylazetidin-3-amine]	0.1 to 50	1 to 50	1 to 50	1 to 50	1 to 50	1 to 50	0.1 to 50	0.1 to 50	0.1 to 50
C[C@@H](Oc1ccc2[nH]nc(-c3cnc(N4CC(C)(NC(=O)CN(C)C)C4)c(C#N)c3)c2c1)c1c(Cl)cncc1Cl [Example 87, (R)-N-(1-(3-cyano-5-(5-(1-(3,5-dichloropyridin-4-yl)ethoxy)-1H-indazol-3-yl)pyridin-2-yl)-3-methylazetidin-3-yl)-2-(dimethylamino)acetamide]	0.1 to 50	50 to 300	1 to 50	1 to 50	1 to 50	1 to 50	50 to 200	200 to 1000	200 to 1000
COCCNC1(C)CN(c2ncc(-c3n[nH]c4ccc(O[C@H](C)c5c(Cl)cncc5Cl)cc34)cc2C#N)C1 [Example 88, (R)-5-(5-(1-(3,5-dichloropyridin-4-yl)ethoxy)-1H-indazol-3-yl)-2-(3-((2-methoxyethyl)amino)-3-methylazetidin-1-yl)nicotinonitrile]	0.1 to 50	50 to 300	1 to 50	1 to 50	1 to 50	1 to 50	50 to 200	200 to 1000	50 to 200
CC(C)OCCNC1(C)CN(c2ncc(-c3n[nH]c4ccc(O[C@H](C)c5c(Cl)cncc5Cl)cc34)cc2C#N)C1 [Example 98, (R)-5-(5-(1-(3,5-dichloropyridin-4-yl)ethoxy)-1H-indazol-3-yl)-2-(3-((2-isopropoxyethyl)amino)-3-methylazetidin-1-yl)nicotinonitrile]	50 to 200	50 to 300	50 to 300	1 to 50	1 to 50	1 to 50	50 to 200	200 to 1000	200 to 1000
C[C@@H](Oc1ccc2[nH]nc(-c3cnc(N4CC(C)(CN5CCOCC5)C4)c(C#N)c3)c2c1)c1c(Cl)cncc1Cl [Example 122, (R)-5-(5-(1-(3,5-dichloropyridin-4-yl)ethoxy)-1H-indazol-3-yl)-2-(3-methyl-3-(morpholinomethyl)aze-tidin-1-yl)nicotinonitrile]	50 to 200	50 to 300	50 to 300	1 to 50	1 to 50	1 to 50	50 to 200	200 to 1000	200 to 1000
C[C@@H](Oc1ccc2[nH]nc(-c3cnc(N4CC(C)(CN5CCCC5)C4)c(C#N)c3)c2c1)c1c(Cl)cncc1Cl [Example 123, (R)-5-(5-(1-(3,5-dichloropyridin-4-yl)ethoxy)-1H-indazol-3-yl)-2-(3-methyl-3-(pyrrolidin-1-ylmethyl)azetidin-1-yl)nicotinonitrile]	0.1 to 50	1 to 50	50 to 300	1 to 50	1 to 50	1 to 50	50 to 200	200 to 1000	200 to 1000
CC(C)NCC1(C)CN(c2ncc(-c3n[nH]c4ccc(O[C@H](C)c5c(Cl)cncc5Cl)cc34)cc2C#N)C1 [Example 133, 5-[5-[(1R)-1-(3,5-dichloro-4-pyridyl)ethoxy]-1H-indazol-3-yl]-2-[3-[(isopropylamino)meth-yl]-3-methyl-azetidin-1-yl]pyridine-3-carbonitrile]	200 to 1000	50 to 300	1 to 50	1 to 50	1 to 50	1 to 50	50 to 200	50 to 200	200 to 1000

The remaining lines, values ahead:

IC50 [1] [nM]	Kd (FGFR2) [nM]	Kd (FGFR1) [nM]	Kd (FGFR3) [nM]	Kd (FGFR3 (V555M)) [nM]	Kd (FGFR4) [nM]	IC50 [2] [nM]	IC50 [3] [nM]	IC50 [4] [nM]	SMILES
0.1 to 50	1 to 50	1 to 50	1 to 50	1 to 50	1 to 50	0.1 to 50	0.1 to 50	0.1 to 50	COc1cc2[nH]nc(-c3cnc(N4CC(C)(N5CC(C)(O)C5)C4)c(C#N)c3)c2cc1O[C@H](C)c1c(Cl)cncc1Cl [Example 99, (R)-5-(5-(1-(3,5-dichloropyridin-4-yl)ethoxy)-6-methoxy-1H-indazol-3-yl)-2-(3-hydroxy-3,3′-dimethyl-[1,3′-biazetidin]-1′-yl)nicotinonitrile]
0.1 to 50	1 to 50	1 to 50	1 to 50	1 to 50	1 to 50	0.1 to 50	50 to 200	50 to 200	C[C@@H](Oc1ccc2[nH]nc(-c3cnc(N4CC(C)(N5CC(C)(O)C5)C4)c(C#N)c3)c2c1)c1c(Cl)cncc1Cl [Example 100, (R)-5-(5-(1-(3,5-dichloropyridin-4-yl)ethoxy)-1H-indazol-3-yl)-2-(3-hydroxy-3,3′-dimethyl-[1,3′-biazetidin]-1′-yl)nicotinonitrile]
0.1 to 50	1 to 50	1 to 50	1 to 50	1 to 50	1 to 50	0.1 to 50	50 to 200	0.1 to 50	COc1cc2[nH]nc(-c3cnc(N4CC(C)(N5CC(C)(OC)C5)C4)c(C#N)c3)c2cc1O[C@H](C)c1c(Cl)cncc1Cl [Example 101, (R)-5-(5-(1-(3,5-dichloropyridin-4-yl)ethoxy)-6-methoxy-1H-indazol-3-yl)-2-(3-methoxy-3,3′-dimethyl-[1,3′-biazetidin]-1′-yl)nicotinonitrile]
0.1 to 50	1 to 50	1 to 50	1 to 50	1 to 50	1 to 50	50 to 200	200 to 1000	200 to 1000	COC1(C)CN(C2(C)CN(c3ncc(-c4n[nH]c5ccc(O[C@H](C)c6c(Cl)cncc6Cl)cc45)cc3C#N)C2)C1 [Example 102, (R)-5-(5-(1-(3,5-dichloropyridin-4-yl)ethoxy)-1H-indazol-3-yl)-2-(3-methoxy-3,3′-dimethyl-[1,3′-biazetidin]-1′-yl)nicotinonitrile]
0.1 to 50	1 to 50	1 to 50	1 to 50	1 to 50	1 to 50	0.1 to 50	50 to 200	50 to 200	COc1cc2[nH]nc(-c3cnc(N4CC(C)(NCC5(O)CC5)C4)c(C#N)c3)c2cc1O[C@H](C)c1c(Cl)cncc1Cl [Example 105]
50 to 200	50 to 300	50 to 300	1 to 50	1 to 50	1 to 50	50 to 200	200 to 1000	200 to 1000	C[C@@H](Oc1cc2c(-c3cnc(N4CC(C)(NCC5CC5)C4)c(C#N)c3)n[nH]c2cc1F)c1c(Cl)cncc1Cl [Example 134, (R)-2-(3-((cyclopropylmethyl)a-mino)-3-methylazetidin-1-yl)-5-(5-(1-(3,5-dichloropyridin-4-yl)ethoxy)-6-fluoro-1H-indazol-3-yl)nicotinonitrile]
